In patent US11999759B2, “Boronic acid derivatives and therapeutic uses thereof” (Qpex Biopharma, Inc., priority 2016, dated 2024):
Read-outs that look alike come from different tables or passages of the source.

Assays:
CTX-M-14 = CTX-M-14 (Escherichia coli, UniProt Q9L5C7); experiment: Inhibition of nitrocefin cleavage by purified CTX-M-14; type: biochemical; details: nitrocefin reporter substrate; 10 min preincubation at room temperature; read-out: Ki (CTX-M-14, NCF)
Procedure: (§1) Ki values of inhibition of purified class A, C and D enzymes were determined spectrophotometrically using nitrocefin as reporter substrate. Purified enzymes were mixed with various concentrations of inhibitors in reaction buffer and incubated for 10 min at room temperature. Nitrocefin was added and substrate cleavage profiles were recorded at 490 nm every 10 sec for 10 min.

KPC-2 = KPC-2 (Klebsiella pneumoniae, UniProt Q9F663); experiment: Inhibition of nitrocefin cleavage by purified KPC-2; type: biochemical; details: nitrocefin reporter substrate; 10 min preincubation at room temperature; read-out: Ki (KPC-2, NCF)
Procedure: as §1, with “min. These experiments confirmed that the described compounds are inhibitors with a broad-spectrum of activity towards various β-lactamases.” for “min.”

P99 = P99 (Enterobacter cloacae, UniProt P05364); experiment: biochemical; details: nitrocefin reporter substrate; 10 min preincubation at room temperature; read-out: Ki (P99, NCF)
Procedure: as §1

Pa-AmpC = Pa-AmpC (Pseudomonas aeruginosa, UniProt P24735); experiment: biochemical
Procedure: as §1

OXA-48 = OXA-48 (Klebsiella pneumoniae, UniProt Q6XEC0); experiment: Inhibition of nitrocefin cleavage by purified OXA-48; type: biochemical; details: nitrocefin reporter substrate; 10 min preincubation at room temperature; read-out: Ki (OXA-48, NCF)
Procedure: as §1, with “min. These experiments confirmed that the described compounds are inhibitors with a broad-spectrum of activity towards various β-lactamases.” for “min.”

OXA-23 = OXA-23 (Acinetobacter baumannii, UniProt Q9L4P2); experiment: Inhibition of nitrocefin cleavage by purified OXA-23; type: biochemical; details: nitrocefin reporter substrate; 10 min preincubation at room temperature; read-out: Ki (OXA-23, NCF)
Procedure: as §1, with “min. These experiments confirmed that the described compounds are inhibitors with a broad-spectrum of activity towards various β-lactamases.” for “min.”

VIM-1 = VIM-1 (Pseudomonas aeruginosa, UniProt A0A0F7KYQ8); experiment: Inhibition of nitrocefin cleavage by purified VIM-1; type: biochemical; details: nitrocefin reporter substrate; 10 min preincubation at room temperature; read-out: Ki (VIM-1, NCF)
NDM-1 = NDM-1 (Klebsiella pneumoniae, UniProt C7C422); experiment: Inhibition of imipenem cleavage by purified NDM-1; type: biochemical; details: imipenem reporter substrate; 37° C.; read-out: Ki (NDM-1, IMI)
Procedure: Purified enzymes were mixed with various concentrations of inhibitors in reaction buffer and incubated for 10 min at room temperature. Imipenem was added and substrate cleavage profiles were recorded at 294 nm every 30 seconds for 30 minutes at 37° C.

IMP-1 = IMP-1 (Serratia marcescens, UniProt P52699); experiment: Inhibition of imipenem cleavage by purified IMP-1; type: biochemical; details: imipenem reporter substrate; 37° C.; read-out: Ki (IMP-1, IMI)
Procedure: Ki values of inhibition of purified class B enzymes NDM-1 and IMP-1 were determined spectrophotometrically using imipenem as reporter substrate. Purified enzymes were mixed with various concentrations of inhibitors in reaction buffer and incubated for 10 min at room temperature. Imipenem was added and substrate cleavage profiles were recorded at 294 nm every 30 seconds for 30 minutes at 37° C. These experiments further confirmed that the described compounds have the ability to inhibit carbapenemase activity of metallo-beta-lactamases.

[1] = test system: PAM1032/KPC-2 (overexpressed MexAB-OprM); experiment: Biapenem potentiation (MPC64) in PAM1032/KPC-2; type: cell-based, Pseudomonas aeruginosa; parameters: PAM1032/KPC-2 Biapenem MPC64: unit not given here; details: BLI potency to decrease biapenem MIC 64-fold, from 32 to 0.5 μg/ml; efflux proficient strain
Procedure: (§2) Efflux of BLIs from Pseudomonas aeruginosa by the MexAB-OprM efflux pump was also evaluated. The plasmid expressing the gene encoding KPC-2 was introduced into two strains of P. aeruginosa, PAM1032 and PAM1154 that overexpressed or lacked MexAB-OprM, respectively. Due to expression of KPC-2 both strains became resistant to biapenem. […] Potency of BLIs to potentiate biapenem in these strains was determined. […] The ratio of MPC64 values for each BLI in PAM1032/KPC-2 (efflux proficient) and PAM1154/KPC-2 (efflux deficient) was determined to generate the Efflux Index (EI) as shown in Table 8.

[2] = test system: PAM1154/KPC-2 (lacked MexAB-OprM); experiment: Biapenem potentiation (MPC64) in PAM1154/KPC-2; type: cell-based, Pseudomonas aeruginosa; parameters: PAM1154/KPC-2 Biapenem MPC64: unit not given here; details: BLI potency to decrease biapenem MIC 64-fold, from 32 to 0.5 μg/ml; efflux deficient strain
Procedure: as §2

[3] = Stability of compound 13 prodrugs in human liver microsomes (HLM); type: in vitro ADME; details: 0.500 mg/mL human liver microsomes, no cofactors, prodrug 1.00 μM; for half-life at 1 μM: pH 7.4, read-out: Estimated half-life (minutes) (rounded to nearest integer value)
Procedure: In the meantime, a 20.0 mg/mL solution of human liver microsomes (XenoTech, LLC) was diluted to 1.00 mg/mL (2× final concentration). Esterase activity for each lot of microsomes used was established by assaying an unrelated ester prodrug as a control. Both the Eppendorfs for each timepoint and the diluted liver microsomes were then warmed to 37° C. in a water bath. No cofactors (e.g. NADPH) were added to ensure that only hydrolytic reactions as opposed to reactions mediated by other cofactor-dependent enzymes (e.g. CYP450 enzymes) would take place. To initiate the reaction, 50 μL of diluted human liver microsomes was added to tubes for all timepoints using a repeating-tip pipette, thereby bringing the final concentration of test compound to 1.00 μM and the final concentration of human liver microsomes to 0.500 mg/mL. At each timepoint, the reaction was halted and proteins precipitated through the addition of 200 μL of 10:45:45 water:methanol:acetonitrile v/v/v containing an unrelated ester prodrug at 250 ng/mL as an internal standard. […] Sample analysis for microsome stability experiments was conducted using a 20.0 μL injection on a LEAP PAL autosampler with Agilent 1100 binary pump HPLC coupled to an AB Sciex 3200 QTrap mass spectrometer. […] Detection was in positive mode; source parameters and parent-daughter ion selection criteria were chosen as needed for each compound to achieve an appropriate limit of detection and signal-to-noise ratio. The samples were analyzed together with appropriate blanks in order to ensure specificity. The rate of hydrolysis for each prodrug was determined by monitoring the concentration of test compound as follows. The peak area for the analyte was divided by the peak area for the internal standard to give an area ratio. The area ratio for each of the two replicates at each timepoint was divided by the area ratio for timepoint 0 to give the percent remaining at each timepoint. The natural logarithm of the percent remaining versus time for all replicates was plotted using Microsoft Excel and fitted to a linear trendline.

[4] = nitrocefin reporter substrate, 10 min preincubation at room temperature, read-out: Ki (Pa-AmpC, NCF)

Chain of OXA-23 (Q9L4P2 18-273): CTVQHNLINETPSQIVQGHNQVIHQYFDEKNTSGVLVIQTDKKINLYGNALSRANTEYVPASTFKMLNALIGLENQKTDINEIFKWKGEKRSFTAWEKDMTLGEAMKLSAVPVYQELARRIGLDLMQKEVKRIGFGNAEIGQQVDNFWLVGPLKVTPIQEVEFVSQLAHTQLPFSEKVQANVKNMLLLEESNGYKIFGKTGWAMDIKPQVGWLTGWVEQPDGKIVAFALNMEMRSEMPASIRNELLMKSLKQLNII
Chain of CTX-M-14 (Q9L5C7 29-291, species assumed): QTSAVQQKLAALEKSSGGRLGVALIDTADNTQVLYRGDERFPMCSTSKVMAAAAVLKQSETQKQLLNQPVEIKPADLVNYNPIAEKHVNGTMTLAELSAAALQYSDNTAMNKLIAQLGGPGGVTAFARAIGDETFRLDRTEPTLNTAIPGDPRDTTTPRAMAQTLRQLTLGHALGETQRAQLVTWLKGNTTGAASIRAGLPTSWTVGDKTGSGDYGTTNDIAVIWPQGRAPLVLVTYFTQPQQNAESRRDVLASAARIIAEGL
Chain of Pa-AmpC (P24735 27-397): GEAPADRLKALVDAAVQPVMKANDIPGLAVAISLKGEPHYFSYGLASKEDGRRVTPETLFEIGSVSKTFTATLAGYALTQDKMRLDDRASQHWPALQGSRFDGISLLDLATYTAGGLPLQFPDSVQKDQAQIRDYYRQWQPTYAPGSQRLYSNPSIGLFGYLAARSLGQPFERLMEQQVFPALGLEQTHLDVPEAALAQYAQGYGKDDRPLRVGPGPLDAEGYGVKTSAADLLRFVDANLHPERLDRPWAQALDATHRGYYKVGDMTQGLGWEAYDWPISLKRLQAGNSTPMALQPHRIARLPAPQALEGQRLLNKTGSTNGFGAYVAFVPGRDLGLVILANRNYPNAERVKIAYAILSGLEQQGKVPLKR
Chain of IMP-1 (P52699 19-246, looked up, species assumed): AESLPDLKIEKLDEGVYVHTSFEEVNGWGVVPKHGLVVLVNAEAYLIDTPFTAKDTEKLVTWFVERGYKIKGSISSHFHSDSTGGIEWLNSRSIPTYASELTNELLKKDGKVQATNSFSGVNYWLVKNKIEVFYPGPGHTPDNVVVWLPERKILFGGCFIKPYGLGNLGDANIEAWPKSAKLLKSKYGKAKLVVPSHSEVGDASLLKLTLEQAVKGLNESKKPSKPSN
Chain of P99 (P05364 21-381): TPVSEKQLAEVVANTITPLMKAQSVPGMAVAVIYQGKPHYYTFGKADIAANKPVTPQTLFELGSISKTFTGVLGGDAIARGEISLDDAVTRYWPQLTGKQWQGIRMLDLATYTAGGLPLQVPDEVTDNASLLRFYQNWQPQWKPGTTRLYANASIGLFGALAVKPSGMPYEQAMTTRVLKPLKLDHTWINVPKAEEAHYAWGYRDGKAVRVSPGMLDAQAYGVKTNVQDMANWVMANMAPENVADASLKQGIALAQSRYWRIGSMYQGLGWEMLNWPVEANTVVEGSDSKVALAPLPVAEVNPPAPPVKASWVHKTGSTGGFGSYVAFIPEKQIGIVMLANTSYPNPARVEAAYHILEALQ
Chain of OXA-48 (Q6XEC0 23-265, looked up): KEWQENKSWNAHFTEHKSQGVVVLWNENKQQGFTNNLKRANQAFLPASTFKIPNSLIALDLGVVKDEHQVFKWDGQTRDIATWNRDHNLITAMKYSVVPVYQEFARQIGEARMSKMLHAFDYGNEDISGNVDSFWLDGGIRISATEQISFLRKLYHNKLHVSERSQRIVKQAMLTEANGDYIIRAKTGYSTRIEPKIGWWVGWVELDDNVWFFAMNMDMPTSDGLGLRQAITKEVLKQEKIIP
Chain of KPC-2 (Q9F663 25-293 limits assumed): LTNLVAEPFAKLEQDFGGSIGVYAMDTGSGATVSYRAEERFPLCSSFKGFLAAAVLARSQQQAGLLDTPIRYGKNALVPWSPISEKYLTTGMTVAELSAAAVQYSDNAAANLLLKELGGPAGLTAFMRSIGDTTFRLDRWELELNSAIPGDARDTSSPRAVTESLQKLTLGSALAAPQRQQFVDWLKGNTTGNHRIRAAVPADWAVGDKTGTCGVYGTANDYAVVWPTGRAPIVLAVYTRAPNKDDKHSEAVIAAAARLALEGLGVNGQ
Chain of NDM-1 (C7C422 29-270, looked up, species assumed): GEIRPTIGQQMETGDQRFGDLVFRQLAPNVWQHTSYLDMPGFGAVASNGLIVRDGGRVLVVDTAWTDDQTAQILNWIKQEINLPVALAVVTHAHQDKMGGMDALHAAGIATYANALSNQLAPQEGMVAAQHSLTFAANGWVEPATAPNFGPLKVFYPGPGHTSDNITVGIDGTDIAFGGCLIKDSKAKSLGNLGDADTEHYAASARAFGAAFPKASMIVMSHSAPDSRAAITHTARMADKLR

| Average % of initial area ratio at t = 0 min [3] | Average % of initial area ratio at t = 5 min [3] | Average % of initial area ratio at t = 10 min [3] | Average % of initial area ratio at t = 30 min [3] | half-life at 1 μM [3] | Compound | Ki (CTX-M-14) | Ki (KPC-2) | Ki (P99) | Ki (Pa-AmpC; [4]) | Ki (OXA-48) | Ki (OXA-23) | Ki (VIM-1) | Ki (NDM-1) | Ki (IMP-1) | PAM1032/KPC-2 Biapenem MPC64 [1] | PAM1154/KPC-2 Biapenem MPC64 [2] | Ki (Pa-AmpC) |
| --- | --- | --- | --- | --- | --- | --- | --- | --- | --- | --- | --- | --- | --- | --- | --- | --- | --- |
| – | – | – | – | – | COc1ccc2c(c1C(=O)O)OB(O)C1(CO)CC21 (stereo not drawn) [Compound 22, 2,2-dihydroxy-1a-(hydroxymethyl)-5-methoxy-1,7b-dihydrocyclopropa[c][1,2]benzoxaborinine-4-carboxylic acid] | < 100 nM | < 100 nM | < 100 nM | < 100 nM | < 100 nM | > 1000 nM | < 100 nM | < 100 nM | < 100 nM | 20 | 10 | – |
| – | – | – | – | – | C[C@]1(Cn2ccnn2)[C@H](C(=O)O)N2C(=O)C[C@H]2S1(=O)=O [Tazobactam, reference compound] | – | > 1000 nM | – | – | 100 to 1000 nM | 100 to 1000 nM | > 1000 nM | > 1000 nM | > 1000 nM | – | – | – |
| – | – | – | – | – | COc1ccc2c(c1C(=O)O)OB(O)C1=C2COC1 [Compound 24, 4,4-dihydroxy-7-methoxy-1,3-dihydrofuro[3,4-c][1,2]benzoxaborinine-6-carboxylic acid] | < 100 nM | < 100 nM | < 100 nM | < 100 nM | < 100 nM | < 100 nM | > 1000 nM | 100 to 1000 nM | > 1000 nM | – | – | – |
| 100% | 73.4% | 55.9% | 11.9% | 10 min | CCCC(=O)OCOC(=O)c1c(F)ccc2c1OB(O)[C@@H]1C[C@H]21 [Compound 26, Butanoyloxymethyl (1aR,7bS)-5-fluoro-2-hydroxy-1a,7b-dihydro-1H-cyclopropa[c][1,2]benzoxaborinine-4-carboxylate] | – | – | – | – | – | – | – | – | – | – | – | – |
| – | – | – | – | – | O=C(O)c1c(F)ccc2c1OB(O)C1CC21 (stereo not drawn) [Compound 4, 5-Fluoro-2-hydroxy-1a,7b-dihydro-1H-cyclopropa[c][1,2]benzoxaborinine-4-carboxylic acid] | < 100 nM | < 100 nM | < 100 nM | < 100 nM | < 100 nM | < 100 nM | 100 to 1000 nM | – | > 1000 nM | 2.5 | 2.5 | – |
| – | – | – | – | – | COc1ccc2c(c1C(=O)O)OB(O)C=C2 [Compound 9, 2-Hydroxy-7-methoxy-1,2-benzoxaborinine-8-carboxylic acid] | – | < 100 nM | < 100 nM | 100 to 1000 nM | < 100 nM | < 100 nM | > 1000 nM | > 1000 nM | > 1000 nM | >10 | 1.25 | – |
| 100% | 91.4% | 80.4% | 25.0% | 14 min | O=C(OCOC(=O)C1CC1)c1c(F)ccc2c1OB(O)[C@@H]1C[C@H]21 [Compound 27] | – | – | – | – | – | – | – | – | – | – | – | – |
| – | – | – | – | – | COc1ccc2c(c1C(=O)O)OB(O)C(F)=C2 [Compound 8, 3-Fluoro-2-hydroxy-7-methoxy-1,2-benzoxaborinine-8-carboxylic acid] | < 100 nM | < 100 nM | < 100 nM | < 100 nM | < 100 nM | < 100 nM | 100 to 1000 nM | – | > 1000 nM | 2.5 | 2.5 | – |
| – | – | – | – | – | O=C(O)[C@H]1/C(=C/CO)O[C@@H]2CC(=O)N21 [Clavulanic Acid, reference compound] | < 100 nM | > 1000 nM | – | – | > 1000 nM | > 1000 nM | > 1000 nM | > 1000 nM | > 1000 nM | – | – | > 1000 nM |
| – | – | – | – | – | O=C(O)c1nccc2c1OB(O)[C@@H]1C[C@H]21 [Compound 21, (1aR,7bS)-2-hydroxy-1a,7b-dihydro-1H-cyclopropa[6,7]oxaborinino[2,3-c]pyridine-4-carboxylic acid] | < 100 nM | 100 to 1000 nM | 100 to 1000 nM | > 1000 nM | < 100 nM | < 100 nM | 100 to 1000 nM | 100 to 1000 nM | – | 1.25 | 1.25 | – |
| – | – | – | – | – | O=C(O)c1nccc2c1OB(O)[C@H]1C[C@@H]21 [Compound 20, (1aS,7bR)-2-hydroxy-1a,7b-dihydro-1H-cyclopropa[6,7]oxaborinino[2,3-c]pyridine-4-carboxylic acid] | < 100 nM | 100 to 1000 nM | > 1000 nM | > 1000 nM | < 100 nM | 100 to 1000 nM | > 1000 nM | > 1000 nM | – | 5 | 5 | – |

| Compound | Average % of initial area ratio at t = 0 min [3] | Average % of initial area ratio at t = 5 min [3] | Average % of initial area ratio at t = 10 min [3] | Average % of initial area ratio at t = 30 min [3] | half-life at 1 μM [3] | Ki (CTX-M-14) | Ki (KPC-2) | Ki (P99) | Ki (Pa-AmpC; [4]) | Ki (OXA-48) | Ki (OXA-23) | Ki (VIM-1) | Ki (NDM-1) | Ki (IMP-1) | PAM1032/KPC-2 Biapenem MPC64 [1] | PAM1154/KPC-2 Biapenem MPC64 [2] | Ki (Pa-AmpC) |
| --- | --- | --- | --- | --- | --- | --- | --- | --- | --- | --- | --- | --- | --- | --- | --- | --- | --- |
| CC(=O)OCOC(=O)c1c(F)ccc2c1OB(O)[C@@H]1C[C@H]21 [Compound 28, Acetoxymethyl (1aR,7bS)-5-fluoro-2-hydroxy-1a,7b-dihydro-1H-cyclopropa[c][1,2]benzoxaborinine-4-carboxylate] | 100% | 50.8% | 23.3% | 19.6% | 15 min | – | – | – | – | – | – | – | – | – | – | – | – |
